Legend:
[1] = molecular target: Ribosomal protein S6 kinase alpha-1 (Homo sapiens) (UniProt Q15418); assay: Inhibition of RSK1 (unknown origin) at 30 uM by microfluidic assay relative to control
[2] = molecular target: T1, Serine/threonine-protein kinase D2 (Homo sapiens) (UniProt Q9BZL6); assay: Inhibition of PKD2 (unknown origin) at 30 uM by microfluidic assay relative to control
T1 sequence (whole entry): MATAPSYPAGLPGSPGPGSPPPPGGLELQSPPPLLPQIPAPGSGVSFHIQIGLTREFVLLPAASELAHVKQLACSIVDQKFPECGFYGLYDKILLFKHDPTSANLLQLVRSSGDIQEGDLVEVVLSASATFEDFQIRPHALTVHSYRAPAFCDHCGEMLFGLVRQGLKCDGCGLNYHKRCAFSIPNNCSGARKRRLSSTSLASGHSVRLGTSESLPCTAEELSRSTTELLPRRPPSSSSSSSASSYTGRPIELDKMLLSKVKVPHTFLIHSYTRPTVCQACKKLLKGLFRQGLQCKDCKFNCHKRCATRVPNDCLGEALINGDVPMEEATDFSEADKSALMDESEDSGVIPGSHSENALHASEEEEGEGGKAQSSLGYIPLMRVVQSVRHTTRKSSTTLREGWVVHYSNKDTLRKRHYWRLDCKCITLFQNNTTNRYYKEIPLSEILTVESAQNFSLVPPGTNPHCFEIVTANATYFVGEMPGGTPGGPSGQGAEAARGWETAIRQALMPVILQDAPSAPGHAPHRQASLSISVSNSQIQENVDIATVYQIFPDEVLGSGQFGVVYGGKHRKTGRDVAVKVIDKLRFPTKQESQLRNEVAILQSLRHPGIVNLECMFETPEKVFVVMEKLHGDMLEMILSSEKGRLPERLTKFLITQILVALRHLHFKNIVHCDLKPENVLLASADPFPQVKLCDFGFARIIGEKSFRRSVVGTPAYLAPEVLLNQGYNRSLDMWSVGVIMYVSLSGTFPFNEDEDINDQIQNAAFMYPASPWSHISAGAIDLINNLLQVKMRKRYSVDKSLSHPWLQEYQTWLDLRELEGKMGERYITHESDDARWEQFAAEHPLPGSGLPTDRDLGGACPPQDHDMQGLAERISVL

[3] = molecular target: Mitogen-activated protein kinase 1 (Homo sapiens) (UniProt P28482); assay: Inhibition of Erk2 (unknown origin) at 30 uM by microfluidic assay relative to control
Chain of Mitogen-activated protein kinase 1 (Homo sapiens) (P28482 whole entry): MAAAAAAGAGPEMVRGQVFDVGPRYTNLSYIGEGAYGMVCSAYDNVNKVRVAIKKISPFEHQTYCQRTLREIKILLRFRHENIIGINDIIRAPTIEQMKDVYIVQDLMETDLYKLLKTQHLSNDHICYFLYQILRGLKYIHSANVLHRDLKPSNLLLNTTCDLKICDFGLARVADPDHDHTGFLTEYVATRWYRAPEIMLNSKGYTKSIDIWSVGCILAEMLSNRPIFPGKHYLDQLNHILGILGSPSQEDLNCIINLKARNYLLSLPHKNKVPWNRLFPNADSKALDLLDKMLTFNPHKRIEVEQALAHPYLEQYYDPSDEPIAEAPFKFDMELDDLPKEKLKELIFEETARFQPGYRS

[4] = molecular target: Hepatocyte growth factor receptor (Homo sapiens) (UniProt P08581); assay: Inhibition of MET (unknown origin) at 30 uM by microfluidic assay relative to control
Chain of Hepatocyte growth factor receptor (Homo sapiens) (P08581 whole entry): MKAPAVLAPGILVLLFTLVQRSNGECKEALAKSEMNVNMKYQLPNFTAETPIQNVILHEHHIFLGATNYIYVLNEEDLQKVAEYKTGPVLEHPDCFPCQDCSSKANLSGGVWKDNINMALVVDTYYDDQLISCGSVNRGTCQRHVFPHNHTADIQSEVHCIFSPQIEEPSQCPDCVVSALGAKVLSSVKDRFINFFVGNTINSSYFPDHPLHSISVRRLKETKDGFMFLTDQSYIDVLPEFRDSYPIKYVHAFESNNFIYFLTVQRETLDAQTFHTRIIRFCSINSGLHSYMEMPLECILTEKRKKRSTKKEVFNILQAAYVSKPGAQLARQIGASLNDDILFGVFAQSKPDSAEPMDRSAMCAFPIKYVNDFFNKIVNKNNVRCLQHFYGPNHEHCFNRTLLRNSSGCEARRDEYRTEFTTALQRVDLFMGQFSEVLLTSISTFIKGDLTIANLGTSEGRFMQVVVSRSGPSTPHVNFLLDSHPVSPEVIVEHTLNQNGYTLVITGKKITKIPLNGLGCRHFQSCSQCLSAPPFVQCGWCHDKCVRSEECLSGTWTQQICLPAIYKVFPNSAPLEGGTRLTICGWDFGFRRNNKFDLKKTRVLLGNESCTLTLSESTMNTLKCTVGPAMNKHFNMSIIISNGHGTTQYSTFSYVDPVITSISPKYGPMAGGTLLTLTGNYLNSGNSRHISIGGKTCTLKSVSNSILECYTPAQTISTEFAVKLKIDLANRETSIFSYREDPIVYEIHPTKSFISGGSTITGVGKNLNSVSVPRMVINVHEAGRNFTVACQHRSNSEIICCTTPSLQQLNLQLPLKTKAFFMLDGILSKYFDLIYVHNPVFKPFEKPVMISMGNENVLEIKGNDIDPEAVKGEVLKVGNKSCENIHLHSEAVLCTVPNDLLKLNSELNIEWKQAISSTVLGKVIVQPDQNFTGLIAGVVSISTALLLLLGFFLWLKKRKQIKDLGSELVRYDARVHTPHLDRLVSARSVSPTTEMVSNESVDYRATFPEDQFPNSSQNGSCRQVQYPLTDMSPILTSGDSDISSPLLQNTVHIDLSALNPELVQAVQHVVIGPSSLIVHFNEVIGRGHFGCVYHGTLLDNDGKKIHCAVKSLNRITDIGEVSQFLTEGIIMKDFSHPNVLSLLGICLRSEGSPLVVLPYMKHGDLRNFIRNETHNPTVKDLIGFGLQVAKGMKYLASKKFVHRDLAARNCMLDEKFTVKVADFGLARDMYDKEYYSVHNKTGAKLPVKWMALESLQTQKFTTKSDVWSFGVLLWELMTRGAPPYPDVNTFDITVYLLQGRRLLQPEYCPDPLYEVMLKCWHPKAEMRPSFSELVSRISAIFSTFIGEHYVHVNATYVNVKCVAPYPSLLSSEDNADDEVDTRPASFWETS

[5] = molecular target: Vascular endothelial growth factor receptor 2 (Homo sapiens, UniProt P35968); assay: Inhibition of VEGFR-2 (unknown origin) at 30 uM by microfluidic assay relative to control
Chain of Vascular endothelial growth factor receptor 2 (P35968 whole entry): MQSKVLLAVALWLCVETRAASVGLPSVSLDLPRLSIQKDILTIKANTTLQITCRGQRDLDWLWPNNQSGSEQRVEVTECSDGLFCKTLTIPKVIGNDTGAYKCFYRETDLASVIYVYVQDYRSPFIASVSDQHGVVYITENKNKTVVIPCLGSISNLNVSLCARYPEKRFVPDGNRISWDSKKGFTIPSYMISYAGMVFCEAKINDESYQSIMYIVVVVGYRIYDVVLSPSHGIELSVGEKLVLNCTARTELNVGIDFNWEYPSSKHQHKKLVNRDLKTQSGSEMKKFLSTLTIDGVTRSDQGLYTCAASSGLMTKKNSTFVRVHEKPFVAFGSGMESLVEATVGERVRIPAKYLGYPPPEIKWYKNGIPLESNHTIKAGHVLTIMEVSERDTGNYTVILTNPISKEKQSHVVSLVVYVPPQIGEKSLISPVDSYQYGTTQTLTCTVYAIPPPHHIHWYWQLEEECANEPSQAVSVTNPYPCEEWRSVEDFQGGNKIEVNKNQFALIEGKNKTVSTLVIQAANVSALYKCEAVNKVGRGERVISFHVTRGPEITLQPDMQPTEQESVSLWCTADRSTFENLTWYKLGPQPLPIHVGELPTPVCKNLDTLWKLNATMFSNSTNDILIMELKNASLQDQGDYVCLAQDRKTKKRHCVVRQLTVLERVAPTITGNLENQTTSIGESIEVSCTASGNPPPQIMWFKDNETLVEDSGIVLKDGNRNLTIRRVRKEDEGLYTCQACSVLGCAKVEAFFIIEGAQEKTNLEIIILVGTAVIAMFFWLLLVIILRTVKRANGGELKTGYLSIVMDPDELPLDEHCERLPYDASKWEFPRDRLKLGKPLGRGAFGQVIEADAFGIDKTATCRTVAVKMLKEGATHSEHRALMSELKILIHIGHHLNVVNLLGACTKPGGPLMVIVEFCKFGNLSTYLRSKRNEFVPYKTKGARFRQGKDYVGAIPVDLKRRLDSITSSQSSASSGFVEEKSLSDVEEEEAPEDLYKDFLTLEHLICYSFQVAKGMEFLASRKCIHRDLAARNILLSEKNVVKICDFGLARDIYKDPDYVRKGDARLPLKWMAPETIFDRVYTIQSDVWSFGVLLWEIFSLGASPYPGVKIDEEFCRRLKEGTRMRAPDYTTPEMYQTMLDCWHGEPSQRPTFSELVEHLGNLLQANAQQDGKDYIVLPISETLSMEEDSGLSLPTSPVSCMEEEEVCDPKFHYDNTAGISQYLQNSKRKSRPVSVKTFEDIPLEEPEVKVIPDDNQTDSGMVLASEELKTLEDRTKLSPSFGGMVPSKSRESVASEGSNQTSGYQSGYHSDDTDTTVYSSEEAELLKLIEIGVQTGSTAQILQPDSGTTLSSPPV

[6] = molecular target: Epidermal growth factor receptor (Homo sapiens, UniProt P00533); assay: Inhibition of EGFR (unknown origin) by microfluidic assay relative to control
Chain of Epidermal growth factor receptor (P00533 whole entry): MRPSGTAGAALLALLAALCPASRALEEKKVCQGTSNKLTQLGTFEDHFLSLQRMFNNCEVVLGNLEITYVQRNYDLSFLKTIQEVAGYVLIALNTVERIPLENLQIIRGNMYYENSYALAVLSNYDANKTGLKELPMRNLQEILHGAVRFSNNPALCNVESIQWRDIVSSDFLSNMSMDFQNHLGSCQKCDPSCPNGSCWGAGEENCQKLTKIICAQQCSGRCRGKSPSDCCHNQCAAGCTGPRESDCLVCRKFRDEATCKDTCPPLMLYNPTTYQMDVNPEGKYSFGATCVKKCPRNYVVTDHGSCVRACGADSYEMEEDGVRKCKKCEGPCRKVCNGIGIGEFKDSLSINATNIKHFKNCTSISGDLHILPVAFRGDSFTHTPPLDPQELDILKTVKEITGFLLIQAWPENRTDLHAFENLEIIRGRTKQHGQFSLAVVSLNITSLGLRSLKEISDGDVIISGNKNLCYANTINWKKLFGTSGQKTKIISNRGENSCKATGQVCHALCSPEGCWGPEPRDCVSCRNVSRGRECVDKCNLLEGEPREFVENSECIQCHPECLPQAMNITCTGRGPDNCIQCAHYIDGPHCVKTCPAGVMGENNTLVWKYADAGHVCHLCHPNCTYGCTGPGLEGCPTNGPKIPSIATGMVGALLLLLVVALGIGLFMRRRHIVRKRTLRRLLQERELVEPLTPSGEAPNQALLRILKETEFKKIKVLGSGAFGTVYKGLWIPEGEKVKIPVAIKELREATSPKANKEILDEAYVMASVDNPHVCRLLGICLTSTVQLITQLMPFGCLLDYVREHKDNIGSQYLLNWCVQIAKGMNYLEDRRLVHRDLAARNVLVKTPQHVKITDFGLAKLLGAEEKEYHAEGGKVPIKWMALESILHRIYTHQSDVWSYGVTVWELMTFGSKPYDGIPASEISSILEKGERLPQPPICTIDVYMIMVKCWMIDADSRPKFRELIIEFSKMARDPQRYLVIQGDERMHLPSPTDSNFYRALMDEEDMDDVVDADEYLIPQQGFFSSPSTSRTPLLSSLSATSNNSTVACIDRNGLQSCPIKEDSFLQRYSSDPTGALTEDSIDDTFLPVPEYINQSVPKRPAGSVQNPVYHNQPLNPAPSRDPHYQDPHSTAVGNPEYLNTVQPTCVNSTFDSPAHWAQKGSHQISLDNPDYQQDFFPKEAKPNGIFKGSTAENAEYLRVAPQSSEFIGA

[7] = organism: Homo sapiens; assay: Selectivity index, ratio of IC50 for VEGFR-2 (unknown origin) to IC50 for CHK1 (unknown origin)
[8] = organism: Homo sapiens; assay: Selectivity index, ratio of IC50 for EGFR (unknown origin) to IC50 for CHK1 (unknown origin)

Chain of Ribosomal protein S6 kinase alpha-1 (Homo sapiens) (Q15418 whole entry): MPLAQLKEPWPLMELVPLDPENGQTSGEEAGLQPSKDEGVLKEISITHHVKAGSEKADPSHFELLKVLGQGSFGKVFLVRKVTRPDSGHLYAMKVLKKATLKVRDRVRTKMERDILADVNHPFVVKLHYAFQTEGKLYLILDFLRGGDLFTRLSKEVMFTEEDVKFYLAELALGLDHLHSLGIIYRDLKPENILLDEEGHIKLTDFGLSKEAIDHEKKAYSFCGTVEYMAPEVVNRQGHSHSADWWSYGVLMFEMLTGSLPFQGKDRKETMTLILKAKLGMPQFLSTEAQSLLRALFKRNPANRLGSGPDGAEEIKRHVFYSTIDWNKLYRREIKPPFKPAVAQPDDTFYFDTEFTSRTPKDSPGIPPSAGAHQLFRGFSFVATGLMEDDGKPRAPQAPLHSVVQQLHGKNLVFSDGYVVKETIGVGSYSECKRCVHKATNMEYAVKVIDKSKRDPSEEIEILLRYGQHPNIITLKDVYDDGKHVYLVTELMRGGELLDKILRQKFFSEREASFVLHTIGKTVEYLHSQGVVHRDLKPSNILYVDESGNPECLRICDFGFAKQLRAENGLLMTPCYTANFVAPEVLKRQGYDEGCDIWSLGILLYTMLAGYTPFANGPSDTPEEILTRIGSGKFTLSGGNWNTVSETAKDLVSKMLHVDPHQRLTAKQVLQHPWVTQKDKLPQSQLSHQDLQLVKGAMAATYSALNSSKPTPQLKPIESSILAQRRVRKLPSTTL

inhibition [1]	inhibition [2]	inhibition [3]	inhibition [4]	inhibition [5]	IC50 [6]	Ratio IC50 [7]	Ratio IC50 [8]	Compound
36%	32%	23%	4%	100%				Cc1[nH]c(-c2ccccc2)c(-c2ccccc2)c1-c1nnc(O)c2nn(-c3ccccc3)cc12
4%	54%	21%	34%	100%	5.1 µM	14.7	16.4	Cc1[nH]c(-c2ccccc2)c(-c2ccccc2)c1C(=O)c1coc2c1cc(O)c1ccccc12
2%	65%	24%	3%	100%				Cc1[nH]c(-c2ccccc2)c(-c2ccccc2)c1C(=O)c1cn(-c2ccccc2)nc1C(=O)Nc1ccccc1

Source: ChEMBL document CHEMBL3739348, “Novel pyrrole derivatives as selective CHK1 inhibitors: design, regioselective synthesis and molecular modeling” (Medchemcomm, 2015)
